{
  "source": "paper PMC9867029",
  "about": "“Effect of Salts on the Conformational Dynamics of the Cytochrome P450 OleP” (Molecules, 2023)",
  "target": "T1, OleP (CYP107D1) (Streptomyces antibioticus, UniProt Q59819)",
  "T1 sequence (Q59819 1-407)": "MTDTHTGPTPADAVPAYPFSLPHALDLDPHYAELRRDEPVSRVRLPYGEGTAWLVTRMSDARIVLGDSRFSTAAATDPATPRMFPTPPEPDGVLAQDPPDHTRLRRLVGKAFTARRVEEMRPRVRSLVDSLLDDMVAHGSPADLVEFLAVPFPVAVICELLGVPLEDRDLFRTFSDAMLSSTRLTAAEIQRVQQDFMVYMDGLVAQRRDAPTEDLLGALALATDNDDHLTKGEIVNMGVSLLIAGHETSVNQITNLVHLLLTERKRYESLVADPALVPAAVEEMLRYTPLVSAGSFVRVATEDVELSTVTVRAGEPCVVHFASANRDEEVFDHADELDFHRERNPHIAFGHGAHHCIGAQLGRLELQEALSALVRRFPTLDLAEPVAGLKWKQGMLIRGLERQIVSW",
  "assay": "UV-visible Soret spectral titration (type I shift), global hyperbolic fit",
  "assay_type": "binding",
  "excerpt": "UV-visible Soret spectral titration (type I shift), global hyperbolic fit on OleP (CYP107D1)",
  "data": [
    {"compound": "CC[C@H]1OC(=O)[C@H](C)[C@@H](O)[C@H](C)[C@@H](O)[C@@H](C)C[C@@H](C)C(=O)[C@H](C)[C@@H](O)[C@H]1C", "note": "[6DEB]", "values": [
      {"measurement": "Kd", "value": "3.83 ± 0.06", "unit": "µM"}
    ]}
  ]
}
